Read-outs that look alike come from different tables or passages of the source.
Key:
[1] = test system: U2OS cells transfected with nuclear export reporter construct (NLS-GFP-NES); experiment: Nuclear export efficiency assay (NLS-GFP-NES reporter); format: cell-based; conditions: 24 hours, KPT-330 at 0.5 μM, 100 reporter-expressing cells scored
Excerpt: A GFP reporter construct was made using the backbone of pEGFP-N1 vector. Specifically, the green fluorescence (GFP) was in-frame tagged with 3 consecutive copies of nuclear localization sequence (NLS) of SV40 large T antigen to the N-terminus and 3 consecutive copies of nuclear export sequences (NES) of HIV Rev to the C-terminus. The resulting construct encodes NLS-GFP-NES fusion protein capable of shuttling freely between the nucleus and the cytoplasm. The construct DNA was transfection into U2OS cells using Lipofectamine 2000 reagent (Life Technologies) according to product instruction. Six hours post transfection, the cells were treated with vehicle, CS, KPT-330, and K+CS for 24 hours. Finally, the treated cells were fixed with 4% PFA, and permeabilized, and stained for endogenous expression of CRM1 protein with anti-CRM1 antibody (Cell Signaling, Danvers, Mass.; catalog number: 46249, dilution 1:1500). Cell images were collected on a Zeiss LSM 780 confocal microscope.

[2] = Viability of nonmalignant cells, Annexin V/PI assay; format: cell-based, human; conditions: human, KPT-330 0.05-0.5 μM, CS 1-3 mM, read-out: % viability normalized for respective controls
Excerpt: (§1) Primary patient samples were obtained. The mononuclear cells were obtained from bone marrow, spleen, peripheral blood and lymph nodes as follows. Freshly obtained tissue (lymph node, spleen, bone marrow) was placed in mesh screen and using a syringe plunger, the tissue was pressed into a petri dish. Samples were then rinsed through the screen using measured amounts of RPMI until all tissue has been pressed through. […] Subsequently the mononuclear cells were isolated via centrifugation in the presence of ficoll and this step was again repeated following washing the cells with RPMI media.
(§2) To isolate peripheral blood mononuclear cells (PBMCs), freshly obtained patient blood sample of patients were centrifuged in the present of ficoll and this step was repeated twice following washing the cells with PBS. Following isolating the mononuclear cells, the viability was assessed and ascertained proper viability above 80% prior to conduct respective experiments. Non-malignant cells were confirmed not to have a malignant condition by pathology review of the tissue.

[3] = test system: Nonmalignant PBMC; experiment: as above; format: cell-based, human; conditions: 48 h, KPT-330 0.05-0.5 μM, CS 1-3 mM
Excerpt: as §1, §2

[4] = test system: Nonmalignant splenic MNC; experiment: as above; format: cell-based, human; conditions: 48 h, KPT-330 0.05-0.5 μM, CS 1-3 mM
Excerpt: as §1, §2

[5] = test system: Nonmalignant BM MNC; experiment: as above; format: cell-based, human; conditions: 48 h, KPT-330 0.05-0.5 μM, CS 1-3 mM
Excerpt: as §1, §2

O=C(/C=C\n1cnc(-c2cc(C(F)(F)F)cc(C(F)(F)F)c2)n1)NNc1cnccn1 [KPT-330, (Z)-3-[3-[3,5-bis (trifluoromethyl)phenyl]-1,2,4-triazol-1-yl]-N′-pyrazin-2-ylprop-2-enehydrazide]
cells with complete nuclear localization of GFP [1]: 28% | viability at 48 h ([2]; nonmalignant bone marrow mononuclear cells, BM MNC): 78% | viability at 48 h ([2]; nonmalignant peripheral blood mononuclear cells (PBMC)): 86% | viability at 48 h ([2]; nonmalignant splenic mononuclear cells, Splenic MNC (sample of r39)): 84% | viability at 48 h ([2]; nonmalignant splenic mononuclear cells, Splenic MNC (sample of r40)): 66% | viability at 48 h ([2]; nonmalignant splenic mononuclear cells, Splenic MNC (sample of r41)): 59% | viability at 48 h ([2]; nonmalignant splenic mononuclear cells, Splenic MNC (sample of r42)): 58%

C[N+](C)(C)CCO.O=C([O-])c1ccccc1O [CS, choline salicylate]
% viability normalized for respective controls [3]: 78% | % viability normalized for respective controls ([4]; Splenic MNC (sample of r39)): 82% | % viability normalized for respective controls ([4]; Splenic MNC (sample of r40)): 64% | % viability normalized for respective controls ([4]; Splenic MNC (sample of r41)): 76% | % viability normalized for respective controls ([4]; Splenic MNC (sample of r42)): 76% | % viability normalized for respective controls [5]: 82%

— US20220218725A1, “METHODS AND MATERIALS FOR TREATING CANCER” (Mayo Foundation for Medical Education and Research, priority 2019, published 2022)
